Assay results reported in the NIST ThermoML archive (doi:10.1021/je100143k).
± gives the expanded uncertainty stated by the source.

Details: Liquid, Ebulliometric method (Recirculating still)

## FC(F)C(F)F [1,1,2,2-tetrafluoroethane]
263.15 K
  vapor or sublimation pressure: 155 ± 10 kPa
268.15 K
  vapor or sublimation pressure: 189 ± 10 kPa
278.15 K
  vapor or sublimation pressure: 276 ± 10 kPa
288.15 K
  vapor or sublimation pressure: 386 ± 10 kPa

## CCF [fluoroethane]
263.15 K
  vapor or sublimation pressure: 311 ± 10 kPa
268.15 K
  vapor or sublimation pressure: 372 ± 10 kPa
278.15 K
  vapor or sublimation pressure: 517 ± 10 kPa
288.15 K
  vapor or sublimation pressure: 700 ± 10 kPa
